The values that follow come from US7754736B2, “5-aminoindole derivatives as H3 inverse agonists” (Hoffmann-La Roche Inc., priority 2005, dated 2010).

Broadly, the Ki is the equilibrium dissociation constant of an inhibitor or competing ligand from its target.

Structures can show the parent of a compound that is named as a salt.

This assay deals with T1, histamine 3 receptor (H3R) (Homo sapiens, UniProt Q9Y5N1).
T1 construct: expressed in transfected cells; host or cells: CHO cells
T1 sequence (Q9Y5N1 whole entry): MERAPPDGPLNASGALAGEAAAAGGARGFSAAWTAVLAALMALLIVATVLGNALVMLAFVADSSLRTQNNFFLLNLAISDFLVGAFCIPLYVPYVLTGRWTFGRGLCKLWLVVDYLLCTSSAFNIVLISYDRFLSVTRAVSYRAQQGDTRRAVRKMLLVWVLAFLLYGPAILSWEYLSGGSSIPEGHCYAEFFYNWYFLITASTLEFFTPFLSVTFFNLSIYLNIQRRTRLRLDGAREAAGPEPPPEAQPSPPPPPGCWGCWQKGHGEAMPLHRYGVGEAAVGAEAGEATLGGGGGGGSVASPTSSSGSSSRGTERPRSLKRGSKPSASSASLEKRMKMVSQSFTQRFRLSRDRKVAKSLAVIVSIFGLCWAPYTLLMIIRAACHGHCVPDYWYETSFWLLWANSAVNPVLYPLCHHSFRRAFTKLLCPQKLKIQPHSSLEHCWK
In words: Competition binding assay with 3H-(R)α-methylhistamine on membranes of the human HR3-CHO cell line. The settings on record: competition with 3H(R)α-Methylhistamine (1 nM), Ki calculated from IC50 by Cheng-Prusoff equation. On the procedure: Binding Assay with ^3H-(R)α-methylhistamine Saturation binding experiments were performed using HR3-CHO membranes prepared as described in […]. Pharmacol. Exp. Therapeutics 307, 213-218. An appropriate amount of membrane (60 to 80 μg protein/well) was incubated with increasing concentrations of ^3H(R)α-Methylhistamine di-hydrochloride (0.10 to 10 nM). Non specific binding was determined using a 200 fold excess of cold (R)α-Methylhistamine dihydrobromide (500 nM final concentration). The incubation was carried out at room temperature (in deep-well plates shaking for three hours). The final volume in each well was 250 μl. The incubation was followed by rapid filtration on GF/B filters (pre-soaked with 100 μl of 0.5% PEI in Tris 50 mM shaking at 200 rpm for two hours). The filtration was made using a cell-harvester and the filter plates were then washed five times with ice cold washing buffer containing 0.5 M NaCl. After harvesting, the plates were dried at 55° C. for 60 min, then we added scintillation fluid (Microscint 40, 40 microl in each well) and the amount of radioactivity on the filter was determined in Packard top-counter after shaking the plates for two hours at 200 rpm at room temperature. Binding Buffer: 50 mM Tris-HCl pH 7.4 and 5 mM MgCl2×6H2O pH 7.4. Washing Buffer: 50 mM Tris-HCl pH 7.4 and 5 mM MgCl2×6H2O and 0.5 M NaCl pH 7.4. […] An appropriate amount of protein, e.g. approximately 500 cpm binding of RAMH at Kd, were incubated for 1 hour at room temperature in 250 μl final volume in 96-well plates in presence of ^3H(R)α-Methylhistamine (1 nM final concentration=Kd). Non-specific binding was determined using a 200 fold excess of cold (R)α-Methylhistamine dihydrobromide. All compounds were tested at a single concentration in duplicates. […] Ki's were calculated from IC50 based on Cheng-Prusoff equation (Cheng, Y, Prusoff, W H (1973) Biochem Pharmacol 22, 3099-3108).
For the molecule `CC(C)N1CCC(Nc2ccc3[nH]c(C(=O)N4CCOCC4)cc3c2)C1` (stereo not drawn) [Example 11, [5-(1-isopropyl-pyrrolidin-3-ylamino)-1H-indol-2-yl]-morpholin-4-yl-methanone bis-hydrochloride], the Ki was 256 nM. For `CC(C)N1CCC(Nc2ccc3[nH]c(C(=O)N4CCOCC4)cc3c2)CC1` [Example 3, [5-(1-isopropyl-piperidin-4-ylamino)-1H-indol-2-yl]-morpholin-4-yl-methanone] the value was 47.5 nM. For `CC(C)N1CCC(Oc2ccc3[nH]c(C(=O)N(C)C(C)C)cc3c2)CC1` [Example 19, 5-(1-isopropyl-piperidin-4-yloxy)-1H-indole-2-carboxylic acid isopropyl-methyl-amide] the value was 66 nM.
